*: point of attachment. CH2F = FC*
Legend:
Type in all cases: cell-based, human
[1] = tested on: A498 cells (proteolytic activity); experiment: Cell proteolytic activity towards Ac-PLVQ-AMC, A498; conditions: 30 min peptide, then 10 min Ac-PLVQ-AMC; fluorescence microscopy and fluorimetric analysis
Method: To evaluate the inhibitory properties of the peptides directly on the human renal cancer cells, we firstly assessed the impact of Ac-PLVE-FMK and Ac-VLPE-FMK on the cell viability of 769-P and A498 cells to determine the working concentrations for further experiments. […] Further experiments were performed using a concentration of 20 μM. To understand if the peptides could affect the activity of caspase proteases, we tested their effect on cell viability in combination with the chemotherapeutic paclitaxel (PXT) in both the cell lines. […] Next, we evaluated the effect of the peptides on renal cancer cell proteolytic activity against the fluorogenic probe Ac-PLVQ-AMC. In this case, 769-p and A498 cells were treated for 30 min with Ac-PLVE-FMK or Ac-VLPE-FMK and were then exposed for 10 min to the substrate Ac-PLVQ-AMC prior fluorescence microscopy analysis (Figure 3c,d).
Figure 3 The effect of the peptide inhibitors on human 769-P and A498 renal cancer cell proliferation and proteolytic activity. […] Cell proliferation was measured after 24, 48, and 72 h via MTT (3-(4,5-dimethylthiazol-2-yl)-2,5-diphenyltetrazolium bromide) assay. […] (c) Fluorescence microscopy evaluation and quantification of the cell proteolytic activity in 769-P and (d) A498 cells towards the fluorogenic substrate Ac-PLVQ-AMC in the absence or presence of Ac-PLVE-FMK and Ac-VLPE-FMK. […]

LAMP-1 in A498 cells = experiment: LAMP-1 protein expression (western blot, confocal microscopy), A498; conditions: 20 μM
Method: Figure 7 Effect of the peptides on LAMP-1 protein expression: (a) Western blotting analysis of LAMP-1 after treatment with PLVE and VLPE (20 μM) for 24, 48, and 72 h in 769-P cells. (b) Confocal microscopy evaluation of LAMP-1 expression after 48 and 72 h of treatment with PLVE and VLPE (20 μM) in 769-P cells. (c) Western blotting analysis of LAMP-1 after treatment with PLVE and VLPE (20 μM) for 24, 48, and 72 h in A498 cells. (d) Confocal microscopy evaluation of LAMP-1 expression after 48 and 72 h of treatment with PLVE and VLPE (20 μM) in A498 cells. Data are represented as mean ± SD of at least three replicates. Significance was calculated through one-way ANOVA followed by Dunnet’s test. * = p < 0.05, ** = p < 0.01, *** = p < 0.001. Cells were seeded in RPMI containing 10% FBS and cultured for 24 h. Next, 30 µM of inhibitors were added to the culture medium and incubated for 24, 48, and 72 h. Control cells were treated with 0.01% DMSO. At all time points the samples were lysed in 50 mM Tri-HCl (pH 8.0), 100 mM NaCl, 0.5% NP-40, 1% Triton X-100, 1× protease inhibitor cocktail (ThermoFisher, Waltham, MA, USA). The 50 µg of protein lysates were separated by electrophoresis on a 12% SDS-PAGE gel and transferred to the PFDF membranes. The expression of cysteine Cts, LAMP-1, E-cadherin, and SNAIL1 were identified by a reaction with specific primary antibodies (CtsB-Ab190077, Abcam, UK; CtsL-Ab95154, Abcam, UK; CtsW Ab191083; LAMP-1- Ab24170, Abcam, UK; SNAIL1 Ab216347, Abcam, UK and e-cadherin-612131, BD Sciences Franklin Lakes, NJ, USA) which were resuspended in 5% non-fat milk in PBST (all Cts 1:3000, LAMP-1, SNAIL1 and E-cadherin 1:1000) and incubated O/N. The next day, the membranes were washed three times with PBST and incubated for 1 h with secondary antibodies (P-GAR Iss (Goat pAb to rabbit IgG (HRP), Abcam, UK or Rabbit Ab to mouse, Abcam, UK; both 1:5000) in 5% non-fat milk in PBST. After an additional wash (three times with PBS), reactive bands were detected by chemiluminescence (Bio-Rad, Irvine, CA, USA). As a loading control, the membranes were incubated with a polyclonal anti-tubulin antibody (1:5000; Ab52866, Abcam, UK) identically. The cells were treated for 48 and 72 h, then were fixed in 4% PFA/PBS for 15 min and permeabilized in 0.25% Triton®X-100 for 10 min. After blocking the non-specific sites in 2% BSA/PBS-T, the immunofluorescence was performed overnight with primary antibody anti-LAMP-1 (1:100, Abcam, Eugene, OR, USA) incubation, followed by incubation with the appropriate fluorophore-labeled secondary antibody Donkey anti-Rabbit IgG (H+L) ReadyProbes™, Alexa Fluor 488 (1:500; ThermoFisher, USA). […]

[2] = tested on: A498 cells (endolysosomal compartment); experiment: LysoTracker red fluorescence, A498; conditions: 20 μM; 48 h; 75 nM LysoTracker red, 1 h, Ex/Em 570/600
Method: First, 1.5 × 10^4 769-P or A498 cells were seeded in 96-well plates in full medium. The day after the cells were treated with the peptides for 3 consecutive days to establish 24, 48, and 72 h groups of treatment. LysoTracker Red fluorescence intensity was measured via microplate reader following the protocols described in [75] and applying Ex/Em = 570/600. The cells were incubated with 75 nM of LysoTracker red for 1 h. […]
Figure S6. The effect of the peptide inhibitors on human 769‐P and A498 renal cancer cell on
lysosomes integrity. (a) 769‐P and (b) A498 cells were treated with increasing doses of Ac‐PLVE‐FMK
(red bars) and Ac‐VLPE‐FMK (blue bars) (2.5–250 μM). NR uptake was measured after 24, 48, and 72
h via MTT assay. (c) LysoTracker red evaluation in 769‐P and (d) A498 cells after 24, 48, and 72 h with
the inhibitors (20 μM). Data represent the mean (± S.D.) of at least three independent experiments,
each performed in triplicate. […]

## Ac-PLVE-CH2F [Ac-PLVE-FMK]
[1]
  Inhibition of probe degradation (cell proteolytic activity): significantly inhibited the probe degradation
LAMP-1 in A498 cells; 72 h
  LAMP-1 protein expression: substantial recovery at 72 h, reaching values slightly higher than CTRL levels
LAMP-1 in A498 cells; first 48 h
  LAMP-1 protein expression: significantly affected during the first 48 h
[2]
  LysoTracker red fluorescence: decreasing

## Ac-VLPE-CH2F [Ac-VLPE-FMK]
[1]
  Inhibition of probe degradation (cell proteolytic activity): significantly inhibited the probe degradation
LAMP-1 in A498 cells; 72 h
  LAMP-1 protein expression: substantial recovery at 72 h, reaching values slightly higher than CTRL levels
LAMP-1 in A498 cells; first 48 h
  LAMP-1 protein expression: significantly affected during the first 48 h
[2]
  LysoTracker red fluorescence: decreasing

Source: publication PMC7281206, “Cysteine Cathepsins Inhibition Affects Their Expression and Human Renal Cancer Cell Phenotype” (Cancers, 2020)
